PubChem BioAssay (NCI)
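How tested: cells in 96-well plates exposed to compound for 48 hours at five concentrations. Abbreviation: GI50, concentration required for 50% inhibition of growth. TGI: total growth inhibition.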

Columns and labels:
Experiment in all cases: DTP human tumour cell line panel, 48 h
OVCAR-4 ovarian = system: OVCAR-4 ovarian
CCRF-CEM leukemia = system: CCRF-CEM leukemia
SNB-78 CNS = system: SNB-78 CNS
ACHN renal = system: ACHN renal
DMS 273 small cell lung = system: DMS 273 small cell lung
SF-295 CNS = system: SF-295 CNS
OVCAR-5 ovarian = system: OVCAR-5 ovarian
M19-MEL melanoma = system: M19-MEL melanoma
DLD-1 colon = system: DLD-1 colon
KM20L2 colon = system: KM20L2 colon
HOP-18 NSCLC = system: HOP-18 NSCLC
DU-145 prostate = system: DU-145 prostate
PC-3 prostate = system: PC-3 prostate
SR leukemia = system: SR leukemia

Structure (SMILES) | TGI (OVCAR-4 ovarian) [µM] | TGI (CCRF-CEM leukemia) [µM] | TGI (SNB-78 CNS) [µM] | TGI (ACHN renal) [µM] | TGI (DMS 273 small cell lung) [µM] | TGI (SF-295 CNS) [µM] | TGI (OVCAR-5 ovarian) [µM] | TGI (M19-MEL melanoma) [µM] | TGI (DLD-1 colon) [µM] | TGI (KM20L2 colon) [µM] | TGI (HOP-18 NSCLC) [µM] | GI50 (DMS 273 small cell lung) [µM] | TGI (DU-145 prostate) [µM] | TGI (PC-3 prostate) [µM] | TGI (SR leukemia) [µM]
Nc1ccc(C(=O)NN2C(=O)C(Cl)C2c2ccccc2)cc1 (stereo not drawn) | > 100 | > 100 | > 100 | > 100 | > 100 | > 100 | > 100 | > 100 | > 100 | > 100 |  |  |  |  | 
COc1cc(/C=C(/C#N)C(N)=O)ccc1O | > 100 | > 100 | > 100 |  | > 100 | > 100 | > 100 | > 100 | > 100 | > 100 | > 100 |  |  |  | 
CCCc1ccc(NCc2cc(OC)c(OC)c(OC)c2)cc1 | > 100 | 49 | > 100 | > 100 | 31.8 |  | > 100 | 44.6 | 48.1 | > 100 | > 100 | 16.2 |  |  | 
CCOC(=O)CSc1nnc(C(Sc2nc(-c3ccccc3)c(-c3ccccc3)[nH]2)C(C)C)n1-c1ccccc1 (stereo not drawn) | 28.5 | 28.4 | > 10 | > 31.6 | > 10 | > 10 | 28.5 | > 10 | > 10 | > 10 |  |  | > 100 | > 100 | > 89.6
N#C/C(=C\c1c[nH]c2ccccc12)C(=O)c1ccc(O)c(O)c1 | > 100 | > 36.2 |  | > 94.3 | > 100 | 67 | > 100 | > 100 | > 100 | > 100 | 93.5 |  | > 100 | > 100 | > 31.6
Cc1cc(NCCCCCCCNc2cc(C)nc3cc([N+](=O)[O-])ccc23)c2ccc([N+](=O)[O-])cc2n1 | 4.31 |  | > 31.6 | 28.5 | 15.5 | 26.4 | 29.8 | 35.9 | 3.55 | 32 | 31.1 |  | 11 | 31.1 | 
COc1cc2c(cc1OC)C1(c3ccc(Cl)cc3)ON=C(c3ccccc3)N1CS2 (stereo not drawn) | > 100 | > 100 | > 100 | > 100 | > 100 | > 100 | > 100 | > 100 | > 100 | > 100 | > 100 |  |  |  | > 100
[N-]=[N+]=C1C(=O)C2CC3CC(C2)CC1C3 | > 100 | > 100 | > 100 | > 100 | > 100 | > 100 | > 100 | > 100 | > 100 | > 100 | > 100 |  |  |  | > 100
Cc1ccc(CC(C)N)cc1 (stereo not drawn) | > 100 | > 100 | > 100 | > 100 | > 100 | > 100 | > 100 |  | > 100 | > 100 | > 100 |  |  |  | 
